Data taken from patent US8278265B2, “Methods, kits and compositions comprising crotamine” (Fundacao de Amparo a Pesquisa do Estado de Sao Paulo—FAPESP, priority 2005, dated 2012).

Legend:
human fibroblasts = assay: In vitro incorporation of Cy3-crotamine in human fibroblasts; assay type: cell-based; conditions: after one hour of incubation, FIG. 2A
Description: Embrionary stem cells (ES) from mice, line USP-1 (Soukoyan, M. A., Kerkis, A. Y., Mello, M. R. B., Kerkis, I. E., Visintin, J. A., Pereira, L. V. (2002), Establishment of New Murine Embryonic Stem Cell Lines for the Generation of Mouse Models of Human Genetic Diseases, Braz. J. Med. Biol. Res. 35, 535-542) in the passage 8-10 were cultured on a layer of γ-irradiated embrionary fibroblasts of mice, kept in DMEM (Gibco, U.S.A.), supplemented with 15% FCS (Gibco, U.S.A.), 1 mM sodium piruvate, 1% non-essential amino acids, 0.1 mM β-mercaptoethanol and 1×103 U/ml murine Leukemia Inhibitor Factor (LIF) (ESGRO-LIF, Gibco). Human lymphoblastoids and primary fibroblasts were cultivated in DMEM and in RPMI, respectively, supplemented with 10% FCS with no antibiotics. Cultures were kept under humid atmosphere at 37° C. and 5% CO2.
In vitro assay: Semiconffluent cultures of pluripotent and differentiation ES cells (homogeneous cell population), as well as other cell cultures of normal and tumor origin, were kept in small laminar slides placed in 24-well plates containing appropriate culture medium. Cells were incubated for 2-3 minutes to 72 hours in the presence of Cy3-crotamine, under concentrations between 10 μM and 0.01 μM, or as control, just in the presence of the dye agent Cy3 diluted in 1 ml PBS (control). […]

B16F10 cells = assay: Tumor treatment with natural crotamine; assay type: in vivo, Balb/c mouse
Description: The cells were maintained in Dulbecco's modified Eagle's cell culture medium (DMEM; Invitrogen, Carlsbad, Calif.) supplemented with 15% fetal calf serum (FCS; Invitrogen). The cells were kept at 37° C. with humidity and 5% CO2. After preparing a cell suspension with about 5×10^6 cells/ml of PBS [phosphate buffered solution], approximately 0.2 ml of this suspension was subcutaneously or endovenously (retroorbital injection) injected into each Balb/c mouse, of 4 to 6 weeks-old with body weight between 16 to 20 g. For negative control, the animals were injected with 0.2 ml of PBS. Before setting up the experiments, the animals were kept under 12 hour light-dark cycle, and were allowed to have water and food ad libitum. All animals were caged and handled under ethical conditions according to international rules of animal care, stated by the International Animal Welfare Recommendations, and in accordance with the Guidelines for the Use of Animals in Biochemical Research
30 minutes after endogenous injection of B16F10 cells, as described above, the animals were treated with 1 μg of crotamine/animal by daily subcutaneous injection, during 21 days.

[1] = tested on: embryonic stem cells (ES) of mice; assay: Embriotoxicity assay: cytotoxic effects on embryonic stem cells; assay type: cell-based; conditions: submicromolar concentrations, between 10^−6 and 10^−7 M; five days
Description: Bearing in mind that crotamine is a toxin, cytotoxic effects were tested on embryonic stem cells (ES) of mice which are non-differentiated cells, derived from the embryonic bud of blastocytes, and have as their main characteristic their pluripotence, an ability to differentiate to different types of tissues.
Such cells were chosen bearing in mind the usefulness of crotamine application for gene therapy (by means of stem cells) and transgenesis, as a carrier of other molecules to within cells. Four different concentrations were tested for five days. […] The assay was as follows.
Embryonic bodies (EBs) were obtained by the hanging drop method, as described above, using culture medium containing crotamine at various concentrations (100 μM to 0.1 μM), changing the medium every two to three days. To analyze the crotamine location in EBs under development, crotamine was substituted with crotamine linked to Cy3 (Cy3-crotamine) during the final 24 hours of incubation. Compact murine morulae (8-16 cells) were obtained from the oviduct and cultivated for 24 hours at 37° C. in 5% CO2, in individual microwells of V-bottom plates (Costar) with […] microwells in M16 medium (supplier: Sigma) and Cy3-crotamine (1-0.1 μM). After 24 hours of culture, normally developed blastocyst numbers were compared within the control and the experimental group.

[2] = tested on: human limfoblastoids, B16 murine melanoma cells, HCT116 colon cancer cells, human mesenchymal stem cells from bone marrow and dental pulp; assay: In vitro transfection with crotamine-DNA aggregates; assay type: cell-based
mice = conditions: injected intraperitoneally; cited from earlier work
chromosomes = assay: Chromosome analysis; assay type: cell-based; conditions: 1 μM, compared with DAPI or 5-BrDU staining
Description: 1 μM crotamine conjugated to Cy3 was added to the culture of ES-USP1 cells, human lymphoblastoids and primary fibroblasts for 1, 3, 6 and 24 hours. Cells were collected and treated according to the routine cytogenetic protocol, with no addition of colchicine. Digital images were obtained with refrigerated CCD (PCO, VC44) and processed by using ISIS software (MetaSystem).

Sequence: YKQCHKKGGHCFPKEKICLPPSSDFGKMDCRWRWK CCKKGSG (YKQCHKKGGHCFPKEKICLPPSSDFGKMDCRWRWKCCKKGSG; UniProt Q9PWF3 23-64, looked up) [crotamine]
- labeling of human fibroblasts (human fibroblasts): intensively marked
- tumor positive animals, 18th day (B16F10 cells; 1 μg/animal daily s.c., day 18): 3
- tumor positive animals, 20th day (B16F10 cells; 1 μg/animal daily s.c., day 20): 2
- Total positive animals up to 21th day (B16F10 cells; 1 μg/animal daily s.c., days 10-21): 5 posit.
- effect on tumor formation compared to the control group (B16F10 cells; 1 μg/animal daily subcutaneous injection, 21 days): delay or even inhibited the tumor formation
- tumor positive animals, 25th day (B16F10 cells; observation after end of treatment, day 25): 9
- tumor positive animals, 29th day (B16F10 cells; observation after end of treatment, day 29): 9
- tumor positive animals, 35th day (B16F10 cells; observation after end of treatment, day 35): 12
- tumor positive animals, 48th day (B16F10 cells; observation after end of treatment, day 48): 12
- ratio of positives (B16F10 cells; up to day 21): 0.33
- cytotoxic effect on embryonic stem cells in culture [1]: does not present any cytotoxic effect
- result of in vitro transfection [2]: positive results
- time to paralysis of the hind legs (mice): less than 15 minutes
- binding to chromosomes (chromosomes): binds to chromosomes in the metaphase
